# Assay results from patent US9163256B2, “Mutant receptors and their use in a nuclear receptor-based inducible gene expression system” (priority 2004, dated 2015).
# How the values were obtained:
# Test in all cases: cell-based
# CfEcR-DEF mutant M125P = CfEcR-DEF mutant M125P (Choristoneura fumiferana, UniProt O77255, M408P); settings: mutant M125P; for EC50: read-out: EC50
# Summary of the method: (§1)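 Mouse NIH3T3 cells were treated with ligand in DMSO, then transfected with GAL4 luciferase reporter (0.16 μg/well) plus mutant CfEcR-DEF receptor constructs (0.04 μg each/well). Cells were kept at 37° C in 5% FBS and lysed 40 hours after ligand addition for dual-luciferase measurement. Fold induction = ligand RLU ÷ DMSO RLU.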
# CfEcR-DEF mutant A110W = CfEcR-DEF mutant A110W (Choristoneura fumiferana, UniProt O77255, A393W); settings: mutant A110W; for EC50: read-out: EC50
# Summary of the method: as §1
# CfEcR-DEF mutant I51L = CfEcR-DEF mutant I51L (Choristoneura fumiferana, UniProt O77255, I334L); settings: mutant I51L; for EC50: read-out: EC50
# Summary of the method: as §1
# CfEcR-DEF mutant Y120W = CfEcR-DEF mutant Y120W (Choristoneura fumiferana, UniProt O77255, Y403W); settings: mutant Y120W; for EC50: read-out: EC50
# Summary of the method: as §1
# CfEcR-DEF mutant W238P = CfEcR-DEF mutant W238P (Choristoneura fumiferana, UniProt O77255, W521P); settings: mutant W238P; for EC50: read-out: EC50; for Rel Max FI: relative to max fold induction of GS-E ligand
# Summary of the method: as §1
# CfEcR-DEF mutant W238Y = CfEcR-DEF mutant W238Y (Choristoneura fumiferana, UniProt O77255, W521Y); settings: mutant W238Y; for EC50: read-out: EC50
# Summary of the method: as §1
# CfEcR-DEF mutant M125C = CfEcR-DEF mutant M125C (Choristoneura fumiferana, UniProt O77255, M408C); settings: mutant M125C
# Summary of the method: as §1
# CfEcR-DEF mutant A110E = CfEcR-DEF mutant A110E (Choristoneura fumiferana, UniProt O77255, A393E); settings: mutant A110E; for EC50: read-out: EC50; for Rel Max FI: relative to max fold induction of GS-E ligand
# Summary of the method: as §1
# CfEcR-DEF mutant L132V = CfEcR-DEF mutant L132V (Choristoneura fumiferana, UniProt O77255, L415V); settings: mutant L132V; for EC50: read-out: EC50; for Rel Max FI: relative to max fold induction of GS-E ligand
# Summary of the method: as §1
# CfEcR-DEF mutant M125L = CfEcR-DEF mutant M125L (Choristoneura fumiferana, UniProt O77255, M408L); settings: mutant M125L; for EC50: read-out: EC50
# Summary of the method: as §1
# CfEcR-DEF mutant F109L = CfEcR-DEF mutant F109L (Choristoneura fumiferana, UniProt O77255, F392L); settings: mutant F109L; for EC50: read-out: EC50
# Summary of the method: as §1
# CfEcR-DEF mutant M54T = CfEcR-DEF mutant M54T (Choristoneura fumiferana, UniProt O77255, M337T); settings: mutant M54T; for EC50: read-out: EC50; for Rel Max FI: relative to max fold induction of GS-E ligand
# Summary of the method: as §1
# CfEcR-DEF mutant R95H = CfEcR-DEF mutant R95H (Choristoneura fumiferana, UniProt O77255, R378H); settings: mutant R95H; for EC50: read-out: EC50
# Summary of the method: as §1
# CfEcR-DEF mutant F48L = CfEcR-DEF mutant F48L (Choristoneura fumiferana, UniProt O77255, F331L); settings: mutant F48L; for EC50: read-out: EC50; for Rel Max FI: relative to max fold induction of GS-E ligand
# Summary of the method: as §1
# CfEcR-DEF mutant A110P = CfEcR-DEF mutant A110P (Choristoneura fumiferana, UniProt O77255, A393P); settings: mutant A110P; for EC50: read-out: EC50; for Rel Max FI: relative to max fold induction of GS-E ligand
# Summary of the method: as §1
# CfEcR-DEF mutant M54W = CfEcR-DEF mutant M54W (Choristoneura fumiferana, UniProt O77255, M337W); settings: mutant M54W; for EC50: read-out: EC50
# Summary of the method: as §1
# CfEcR-DEF mutant T52L = CfEcR-DEF mutant T52L (Choristoneura fumiferana, UniProt O77255, T335L); settings: mutant T52L; for EC50: read-out: EC50; for Rel Max FI: relative to max fold induction of GS-E ligand
# Summary of the method: as §1
# CfEcR-DEF mutant M125R = CfEcR-DEF mutant M125R (Choristoneura fumiferana, UniProt O77255, M408R); settings: mutant M125R; for EC50: read-out: EC50
# Summary of the method: as §1
# CfEcR-DEF mutant M125E = CfEcR-DEF mutant M125E (Choristoneura fumiferana, UniProt O77255, M408E); settings: mutant M125E; for EC50: read-out: EC50
# Summary of the method: as §1
# CfEcR-DEF mutant L234M = CfEcR-DEF mutant L234M (Choristoneura fumiferana, UniProt O77255, L517M); settings: mutant L234M; for EC50: read-out: EC50
# Summary of the method: as §1
# CfEcR-DEF mutant T52E = CfEcR-DEF mutant T52E (Choristoneura fumiferana, UniProt O77255, T335E); settings: mutant T52E; for EC50: read-out: EC50
# Summary of the method: as §1
# CfEcR-DEF mutant A110P, sequence (O77255 entry or part of it A393P): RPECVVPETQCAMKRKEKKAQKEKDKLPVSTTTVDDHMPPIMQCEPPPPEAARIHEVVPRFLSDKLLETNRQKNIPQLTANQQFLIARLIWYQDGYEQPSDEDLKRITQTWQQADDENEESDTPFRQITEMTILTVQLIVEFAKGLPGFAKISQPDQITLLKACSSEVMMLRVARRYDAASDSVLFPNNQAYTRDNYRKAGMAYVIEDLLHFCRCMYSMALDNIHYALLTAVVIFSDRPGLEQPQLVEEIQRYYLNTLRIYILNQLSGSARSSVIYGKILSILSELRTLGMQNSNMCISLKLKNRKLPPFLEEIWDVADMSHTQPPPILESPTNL
# CfEcR-DEF mutant A110P, sequence (P28702 299-449, stated change not applied, further chain): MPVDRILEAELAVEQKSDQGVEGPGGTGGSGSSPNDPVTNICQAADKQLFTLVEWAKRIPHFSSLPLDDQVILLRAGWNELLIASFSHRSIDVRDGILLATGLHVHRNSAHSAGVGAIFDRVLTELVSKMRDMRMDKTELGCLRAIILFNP
# CfEcR-DEF mutant W238P, sequence (P28702 299-449): as the sequence (P28702 299-449, stated change not applied, further chain) above
# CfEcR-DEF mutant W238P, sequence (O77255 entry or part of it W521P): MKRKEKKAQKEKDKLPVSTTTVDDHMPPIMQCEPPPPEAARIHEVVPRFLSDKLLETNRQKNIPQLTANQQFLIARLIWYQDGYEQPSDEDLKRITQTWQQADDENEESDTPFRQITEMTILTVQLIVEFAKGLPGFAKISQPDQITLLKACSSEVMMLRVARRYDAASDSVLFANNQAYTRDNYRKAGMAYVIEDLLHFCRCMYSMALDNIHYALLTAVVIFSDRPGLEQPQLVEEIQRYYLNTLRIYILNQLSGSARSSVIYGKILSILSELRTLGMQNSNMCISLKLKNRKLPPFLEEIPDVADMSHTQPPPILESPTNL
# CfEcR-DEF mutant F109L, sequence (P28702 299-449): as the sequence (P28702 299-449, stated change not applied, further chain) above
# CfEcR-DEF mutant F109L, sequence (O77255 entry or part of it F392L): as the sequence (O77255 entry or part of it A393P) above, with F186L, P187A counted along it
# CfEcR-DEF mutant R95H, sequence (P28702 299-449): as the sequence (P28702 299-449, stated change not applied, further chain) above
# CfEcR-DEF mutant R95H, sequence (O77255 entry or part of it R378H): as the sequence (O77255 entry or part of it W521P) above, with R160H, P303W counted along it
# CfEcR-DEF mutant M125L, sequence (P28702 299-449): as the sequence (P28702 299-449, stated change not applied, further chain) above
# CfEcR-DEF mutant M125L, sequence (O77255 entry or part of it M408L): as the sequence (O77255 entry or part of it W521P) above, with M190L, P303W counted along it
# CfEcR-DEF mutant A110W, sequence (P28702 299-449, stated change not applied): as the sequence (P28702 299-449, stated change not applied, further chain) above
# CfEcR-DEF mutant A110W, sequence (O77255 entry or part of it A393W): as the sequence (O77255 entry or part of it A393P) above, with P187W counted along it
# CfEcR-DEF mutant M125R, sequence (P28702 299-449): as the sequence (P28702 299-449, stated change not applied, further chain) above
# CfEcR-DEF mutant M125R, sequence (O77255 entry or part of it M408R): as the sequence (O77255 entry or part of it W521P) above, with M190R, P303W counted along it
# CfEcR-DEF mutant F48L, sequence (P28702 299-449): as the sequence (P28702 299-449, stated change not applied, further chain) above
# CfEcR-DEF mutant F48L, sequence (O77255 entry or part of it F331L): as the sequence (O77255 entry or part of it W521P) above, with F113L, P303W counted along it
# CfEcR-DEF mutant A110E, sequence (P28702 299-449, stated change not applied): as the sequence (P28702 299-449, stated change not applied, further chain) above
# CfEcR-DEF mutant A110E, sequence (O77255 entry or part of it A393E): as the sequence (O77255 entry or part of it A393P) above, with P187E counted along it
compound,measurement,setting,value
"CC(C)(O)CC[C@@H](O)[C@](C)(O)[C@H]1CC[C@@]2(O)C3=CC(=O)[C@@H]4C[C@@H](O)[C@@H](O)C[C@]4(C)[C@H]3CC[C@]12C [20E, 20-hydroxyecdysone]",Rel Max FI,CfEcR-DEF mutant M125P,1.29
same,EC50,CfEcR-DEF mutant M125P,> 33 µM
same,Rel Max FI,CfEcR-DEF mutant A110W,0
same,EC50,CfEcR-DEF mutant A110W,> 33 µM
same,Rel Max FI,CfEcR-DEF mutant I51L,0
same,EC50,CfEcR-DEF mutant I51L,> 33 µM
same,Rel Max FI,CfEcR-DEF mutant Y120W,0
same,EC50,CfEcR-DEF mutant Y120W,> 33 µM
same,EC50,CfEcR-DEF mutant W238P,> 33 µM
same,Rel Max FI,CfEcR-DEF mutant W238P,0
same,Rel Max FI,CfEcR-DEF mutant W238Y,0.18
same,EC50,CfEcR-DEF mutant W238Y,> 33 µM
same,Rel Max FI,CfEcR-DEF mutant M125C,0.22
same,EC50,CfEcR-DEF mutant A110E,> 33 µM
same,Rel Max FI,CfEcR-DEF mutant A110E,0
same,EC50,CfEcR-DEF mutant L132V,> 33 µM
same,Rel Max FI,CfEcR-DEF mutant L132V,0
same,Rel Max FI,CfEcR-DEF mutant M125L,0
same,EC50,CfEcR-DEF mutant M125L,> 33 µM
same,Rel Max FI,CfEcR-DEF mutant F109L,0.09
same,EC50,CfEcR-DEF mutant F109L,> 33 µM
same,EC50,CfEcR-DEF mutant M54T,> 33 µM
same,Rel Max FI,CfEcR-DEF mutant M54T,0
same,Rel Max FI,CfEcR-DEF mutant R95H,0
same,EC50,CfEcR-DEF mutant R95H,> 33 µM
same,EC50,CfEcR-DEF mutant F48L,> 33 µM
same,Rel Max FI,CfEcR-DEF mutant F48L,0
same,EC50,CfEcR-DEF mutant A110P,> 33 µM
same,Rel Max FI,CfEcR-DEF mutant A110P,0
same,Rel Max FI,CfEcR-DEF mutant M54W,0
same,EC50,CfEcR-DEF mutant M54W,> 33 µM
same,EC50,CfEcR-DEF mutant T52L,> 33 µM
same,Rel Max FI,CfEcR-DEF mutant T52L,0
same,Rel Max FI,CfEcR-DEF mutant M125R,0.01
same,EC50,CfEcR-DEF mutant M125R,> 33 µM
same,Rel Max FI,CfEcR-DEF mutant M125E,0
same,EC50,CfEcR-DEF mutant M125E,> 33 µM
same,Rel Max FI,CfEcR-DEF mutant L234M,0
same,EC50,CfEcR-DEF mutant L234M,> 33 µM
same,Rel Max FI,CfEcR-DEF mutant T52E,0
same,EC50,CfEcR-DEF mutant T52E,> 33 µM
"CC(C)CC[C@@H](O)[C@](C)(O)[C@H]1CC[C@@]2(O)C3=CC(=O)[C@@H]4C[C@@H](O)[C@@H](O)C[C@]4(C)[C@H]3CC[C@]12C [PonA, ponasterone A]",Rel Max FI,CfEcR-DEF mutant M125P,0.7
same,EC50,CfEcR-DEF mutant M125P,> 33 µM
same,Rel Max FI,CfEcR-DEF mutant A110W,0.01
same,EC50,CfEcR-DEF mutant A110W,> 33 µM
same,Rel Max FI,CfEcR-DEF mutant I51L,0.66
same,EC50,CfEcR-DEF mutant I51L,~8 µM
same,Rel Max FI,CfEcR-DEF mutant Y120W,0.69
same,EC50,CfEcR-DEF mutant Y120W,~10 µM
same,EC50,CfEcR-DEF mutant W238P,~3.3 µM
same,Rel Max FI,CfEcR-DEF mutant W238P,0.73
same,Rel Max FI,CfEcR-DEF mutant W238Y,0.07
same,EC50,CfEcR-DEF mutant W238Y,> 33 µM
same,Rel Max FI,CfEcR-DEF mutant M125C,0.28
same,EC50,CfEcR-DEF mutant A110E,~10 µM
same,Rel Max FI,CfEcR-DEF mutant A110E,1.09
same,EC50,CfEcR-DEF mutant L132V,6.56 µM
same,Rel Max FI,CfEcR-DEF mutant L132V,0.57
same,Rel Max FI,CfEcR-DEF mutant M125L,0
same,EC50,CfEcR-DEF mutant M125L,> 33 µM
same,Rel Max FI,CfEcR-DEF mutant F109L,0.03
same,EC50,CfEcR-DEF mutant F109L,> 33 µM
same,EC50,CfEcR-DEF mutant M54T,9.46 µM
same,Rel Max FI,CfEcR-DEF mutant M54T,0.5
same,Rel Max FI,CfEcR-DEF mutant R95H,0.03
same,EC50,CfEcR-DEF mutant R95H,> 33 µM
same,EC50,CfEcR-DEF mutant F48L,~10 µM
same,Rel Max FI,CfEcR-DEF mutant F48L,0.59
same,EC50,CfEcR-DEF mutant A110P,> 33 µM
same,Rel Max FI,CfEcR-DEF mutant A110P,0
same,Rel Max FI,CfEcR-DEF mutant M54W,0.46
same,EC50,CfEcR-DEF mutant M54W,~10 µM
same,EC50,CfEcR-DEF mutant T52L,5.03 µM
same,Rel Max FI,CfEcR-DEF mutant T52L,0.54
same,Rel Max FI,CfEcR-DEF mutant M125R,0
same,EC50,CfEcR-DEF mutant M125R,~8 µM
same,Rel Max FI,CfEcR-DEF mutant M125E,0
same,EC50,CfEcR-DEF mutant M125E,> 33 µM
same,Rel Max FI,CfEcR-DEF mutant L234M,0.02
same,EC50,CfEcR-DEF mutant L234M,> 33 µM
same,Rel Max FI,CfEcR-DEF mutant T52E,0
same,EC50,CfEcR-DEF mutant T52E,> 33 µM
